Test results from patent US6423689B1, “Peptidyl calcium channel blockers” (Warner-Lambert Company, priority 1997, dated 2002).

Molecular target: T1, N-type Ca2+ channels in IMR-32 cells (Homo sapiens, UniProt Q00975)
T1 construct: host or cells: IMR-32 cells, differentiated with dibutyryl cAMP and bromodeoxyuridine
Assay: Inhibition of N-type calcium flux in IMR-32 cells (Indo-1 fluorescence, nitrendipine present)
Format: cell-based
Conditions: for IC50: IMR-32 cells, 5 μM nitrendipine, K+ depolarization
In short: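 With L-type flux blocked by 5 μM nitrendipine, N-type Ca2+ entry was read as the Indo-1 emission ratio (400/490 nm, excitation 350 nm) at 30° C after KCl depolarization.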

T1 sequence (Q00975 whole entry): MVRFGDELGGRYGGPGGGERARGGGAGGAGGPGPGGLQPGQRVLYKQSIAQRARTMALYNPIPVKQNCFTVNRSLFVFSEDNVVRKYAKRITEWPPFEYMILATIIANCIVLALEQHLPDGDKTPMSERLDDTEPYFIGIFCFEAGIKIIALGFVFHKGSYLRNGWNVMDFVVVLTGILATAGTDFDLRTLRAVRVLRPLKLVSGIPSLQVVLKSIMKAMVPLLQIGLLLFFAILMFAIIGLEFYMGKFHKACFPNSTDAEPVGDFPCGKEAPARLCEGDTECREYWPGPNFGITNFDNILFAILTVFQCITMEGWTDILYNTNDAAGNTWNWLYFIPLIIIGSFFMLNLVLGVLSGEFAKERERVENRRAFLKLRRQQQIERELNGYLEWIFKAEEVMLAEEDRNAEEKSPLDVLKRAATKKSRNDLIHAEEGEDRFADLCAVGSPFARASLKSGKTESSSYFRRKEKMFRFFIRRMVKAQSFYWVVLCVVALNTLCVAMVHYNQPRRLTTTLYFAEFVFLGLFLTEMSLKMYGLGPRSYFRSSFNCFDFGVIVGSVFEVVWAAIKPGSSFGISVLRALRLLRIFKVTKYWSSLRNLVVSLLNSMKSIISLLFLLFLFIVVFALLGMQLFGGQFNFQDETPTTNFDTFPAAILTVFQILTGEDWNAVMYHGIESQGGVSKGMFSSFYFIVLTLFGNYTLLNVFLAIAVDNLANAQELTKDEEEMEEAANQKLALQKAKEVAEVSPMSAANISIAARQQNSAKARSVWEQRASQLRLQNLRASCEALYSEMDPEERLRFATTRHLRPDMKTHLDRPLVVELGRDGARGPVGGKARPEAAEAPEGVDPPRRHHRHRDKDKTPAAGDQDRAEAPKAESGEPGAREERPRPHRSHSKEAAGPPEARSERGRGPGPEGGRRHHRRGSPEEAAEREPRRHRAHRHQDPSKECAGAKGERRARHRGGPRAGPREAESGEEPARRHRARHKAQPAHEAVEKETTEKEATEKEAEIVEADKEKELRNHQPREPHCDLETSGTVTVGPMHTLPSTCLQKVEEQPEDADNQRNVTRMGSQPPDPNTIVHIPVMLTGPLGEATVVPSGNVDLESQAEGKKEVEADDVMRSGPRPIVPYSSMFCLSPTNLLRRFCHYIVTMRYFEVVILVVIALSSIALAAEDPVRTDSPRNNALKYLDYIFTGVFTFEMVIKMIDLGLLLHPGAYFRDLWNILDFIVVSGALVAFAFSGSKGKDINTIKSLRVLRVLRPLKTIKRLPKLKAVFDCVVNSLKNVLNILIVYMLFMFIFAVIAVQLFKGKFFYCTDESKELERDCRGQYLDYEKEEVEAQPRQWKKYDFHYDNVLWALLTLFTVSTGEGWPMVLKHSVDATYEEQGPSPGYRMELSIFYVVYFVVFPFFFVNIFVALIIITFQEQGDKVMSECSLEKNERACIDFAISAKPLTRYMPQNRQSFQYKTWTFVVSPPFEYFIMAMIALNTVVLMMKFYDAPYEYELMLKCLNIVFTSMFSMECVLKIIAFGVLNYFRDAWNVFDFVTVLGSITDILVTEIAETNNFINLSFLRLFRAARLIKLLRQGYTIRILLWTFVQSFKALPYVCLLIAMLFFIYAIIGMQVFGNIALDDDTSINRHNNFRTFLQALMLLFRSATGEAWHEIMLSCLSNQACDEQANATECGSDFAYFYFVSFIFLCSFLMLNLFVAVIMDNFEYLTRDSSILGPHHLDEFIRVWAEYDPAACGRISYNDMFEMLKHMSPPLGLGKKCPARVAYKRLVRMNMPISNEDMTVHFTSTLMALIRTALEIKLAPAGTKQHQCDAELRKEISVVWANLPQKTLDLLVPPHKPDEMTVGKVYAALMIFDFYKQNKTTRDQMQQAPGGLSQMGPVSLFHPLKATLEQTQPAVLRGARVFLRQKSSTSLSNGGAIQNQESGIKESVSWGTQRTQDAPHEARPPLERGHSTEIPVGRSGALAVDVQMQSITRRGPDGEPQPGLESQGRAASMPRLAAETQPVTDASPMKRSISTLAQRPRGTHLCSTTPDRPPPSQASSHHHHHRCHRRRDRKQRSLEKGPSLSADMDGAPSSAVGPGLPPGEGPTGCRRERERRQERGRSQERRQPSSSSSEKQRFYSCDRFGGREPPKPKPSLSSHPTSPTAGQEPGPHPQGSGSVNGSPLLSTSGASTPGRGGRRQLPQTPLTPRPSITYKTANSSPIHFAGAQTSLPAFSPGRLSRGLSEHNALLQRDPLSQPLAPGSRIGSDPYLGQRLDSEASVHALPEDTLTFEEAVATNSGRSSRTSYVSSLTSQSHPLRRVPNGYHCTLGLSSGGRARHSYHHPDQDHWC
T1 sequence (P54289 25-956 partner limits assumed): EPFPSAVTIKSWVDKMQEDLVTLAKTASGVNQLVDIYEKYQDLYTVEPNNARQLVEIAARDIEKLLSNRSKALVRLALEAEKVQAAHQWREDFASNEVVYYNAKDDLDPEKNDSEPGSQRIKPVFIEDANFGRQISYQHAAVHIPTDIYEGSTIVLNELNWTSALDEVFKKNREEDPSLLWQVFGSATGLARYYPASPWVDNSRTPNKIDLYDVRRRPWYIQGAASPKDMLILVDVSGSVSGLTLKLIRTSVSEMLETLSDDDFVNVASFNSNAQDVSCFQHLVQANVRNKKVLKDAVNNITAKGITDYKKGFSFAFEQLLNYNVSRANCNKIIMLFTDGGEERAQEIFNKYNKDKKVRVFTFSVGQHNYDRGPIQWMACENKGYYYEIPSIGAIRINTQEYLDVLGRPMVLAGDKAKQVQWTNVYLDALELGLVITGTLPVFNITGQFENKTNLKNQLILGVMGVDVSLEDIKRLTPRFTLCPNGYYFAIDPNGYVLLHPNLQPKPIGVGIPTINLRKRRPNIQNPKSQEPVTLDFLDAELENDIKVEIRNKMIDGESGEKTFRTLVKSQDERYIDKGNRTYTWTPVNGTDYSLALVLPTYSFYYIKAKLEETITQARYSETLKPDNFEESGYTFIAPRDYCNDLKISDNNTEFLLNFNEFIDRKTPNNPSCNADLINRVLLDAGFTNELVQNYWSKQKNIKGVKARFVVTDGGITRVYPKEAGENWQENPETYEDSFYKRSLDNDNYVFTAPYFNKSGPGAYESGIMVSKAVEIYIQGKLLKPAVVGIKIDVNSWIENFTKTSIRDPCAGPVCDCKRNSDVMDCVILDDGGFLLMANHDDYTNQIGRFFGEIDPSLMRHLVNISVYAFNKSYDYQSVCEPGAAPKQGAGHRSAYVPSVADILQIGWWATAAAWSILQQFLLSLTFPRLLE
T1 sequence (P54289 957-1103 partner limits assumed): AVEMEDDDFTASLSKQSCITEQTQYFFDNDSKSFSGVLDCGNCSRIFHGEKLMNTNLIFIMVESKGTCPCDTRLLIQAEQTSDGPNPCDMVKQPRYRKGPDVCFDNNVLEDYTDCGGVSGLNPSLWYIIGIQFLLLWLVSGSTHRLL
T1 sequence (P54284 whole entry partner): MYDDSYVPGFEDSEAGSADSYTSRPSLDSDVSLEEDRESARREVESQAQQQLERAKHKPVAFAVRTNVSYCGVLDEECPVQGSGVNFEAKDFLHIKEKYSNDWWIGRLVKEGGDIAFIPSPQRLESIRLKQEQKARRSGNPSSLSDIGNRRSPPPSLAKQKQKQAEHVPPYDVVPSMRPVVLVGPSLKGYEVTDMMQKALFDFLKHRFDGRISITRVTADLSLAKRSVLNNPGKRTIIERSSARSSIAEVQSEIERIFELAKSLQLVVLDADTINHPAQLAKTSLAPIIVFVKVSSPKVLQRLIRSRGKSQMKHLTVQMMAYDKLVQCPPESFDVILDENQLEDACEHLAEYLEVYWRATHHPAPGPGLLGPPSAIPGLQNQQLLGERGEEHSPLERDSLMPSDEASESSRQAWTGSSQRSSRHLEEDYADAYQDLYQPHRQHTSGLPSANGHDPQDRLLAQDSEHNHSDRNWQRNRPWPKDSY

| Compound | Inhibition of Calcium Flux in IMR-32 Cells % Inhibition at 1 μM | Inhibition of Calcium Flux in IMR-32 Cells % Inhibition at 10 μM | IC50 |
| --- | --- | --- | --- |
| CC(C)C[C@H](NC(=O)N1CCCCCC1)C(=O)N[C@@H](Cc1ccc(OCc2ccccc2)cc1)C(=O)NCc1ccc2c(c1)OCO2 (relative stereo) [Example 222, [S-(R*,R*)]-Azepane-1-carboxylic acid {1-[1-[(benzo[1,3]dioxol-5-ylmethyl)-carbamoyl]-2-(4-benzyloxy-phenyl)-ethylcarbamoyl]-3-methyl-butyl}-amide] | 36% | 84% | – |
| COc1cc(NC(=O)[C@H](Cc2ccc(OCc3ccccc3)cc2)NC(=O)[C@H](CC(C)C)NC(=O)N2CCCCCC2)cc(OC)c1OC (relative stereo) [Example 223, [S-(R*,R*)]-Azepane-1-carboxylic acid {-1-[2-(4-benzyloxy-phenyl)-1-(3,4,5-trimethoxy-phenylcarbamoyl)-ethylcarbamoyl]-3-methyl-butyl}-amide] | 36% | 74% | – |
| CC(C)C[C@H](NC(=O)N1CCCCCC1)C(=O)N[C@@H](Cc1ccc(OCc2ccccc2)cc1)C(=O)NCCc1c[nH]c2ccccc12 (relative stereo) [Example 224, [S-(R*,R*)]-Azepane-1-carboxylic acid (1-{2-(4-benzyloxy-phenyl)-1-[2-(1H-indol-3-yl)-ethylcarbamoyl]-ethylcarbamoyl}-3-methyl-butyl)-amide] | 50% | 87% | – |
| CCC(CO)NC(=O)[C@H](Cc1ccc(OCc2ccccc2)cc1)NC(=O)[C@H](CC(C)C)NC(=O)N1CCCCCC1 (relative stereo) [Example 226, [S-(R*,R*)]-Azepane-1-carboxylic acid {1-[2-(4-benzyloxy-phenyl)-1-(1-hydroxymethyl-propylcarbamoyl)-ethylcarbamoyl]-3-methyl-butyl}-amide] | 37% | 84% | – |
| CC(C)C[C@H](NC(=O)N1CCCCCC1)C(=O)N[C@@H](Cc1ccc(OCc2ccccc2)cc1)C(=O)N1CCN(CCOCCO)CC1 (relative stereo) [Example 228, [S-(R*,R*)]-Azepane-1-carboxylic acid-[1-(1-(4-benzyloxy-benzyl)-2-{4-[2-(2-hydroxy-ethoxy)-ethyl]-piperazin-1-yl}-2-oxo-ethylcarbamoyl)-3-methyl-butyl]-amide] | 24% | 82% | – |
| CCC(CO)(CO)NC(=O)[C@H](Cc1ccc(OCc2ccccc2)cc1)NC(=O)[C@H](CC(C)C)NC(=O)N1CCCCCC1 (relative stereo) [Example 229, [S-(R*,R*)]-Azepane-1-carboxylic acid {1-[2-(4-benzyloxy-phenyl)-1-(1,1-bis-hydroxymethyl-propylcarbamoyl)-ethylcarbamoyl]-3-methyl-butyl}-amide] | 30% | 80% | – |
| CC(C)C[C@H](NC(=O)N1CCCCCC1)C(=O)N[C@@H](Cc1ccc(OCc2ccccc2)cc1)C(=O)N1CCC(O)CC1 (relative stereo) [Example 235, [S-(R*,R*)]-Azepane-1-carboxylic acid {1-[1-(4-benzyloxy-benzyl)-2-(4-hydroxy-piperidin-1-yl)-2-oxo-ethylcarbamoyl]-3-methyl-butyl}-amide] | 20% | 64% | – |
| CC(C)C[C@H](NC(=O)N1CCCCCC1)C(=O)N[C@@H](Cc1ccc(OCc2ccccc2)cc1)C(=O)NCCC#N (relative stereo) [Example 236, [S-(R*,R*)]-Azepane-1-carboxylic acid {1-[2-(4-benzyloxy-phenyl)-1-(2-cyano-ethylcarbamoyl)-ethylcarbamoyl]-3-methyl-butyl}-amide] | 50% | 93% | – |
| CC(C)C[C@H](NC(=O)N1CCCCCC1)C(=O)N[C@@H](Cc1ccc(OCc2ccccc2)cc1)C(=O)N1CCN(c2ccc(F)cc2)CC1 (relative stereo) [Example 240, [S-(R*,R*)]-Azepane-1-carboxylic acid (1-{1-(4-benzyloxy-benzyl)-2-[4-(4-fluoro-phenyl)-piperazin-1-yl]-2-oxo-ethylcarbamoyl}-3-methyl-butyl)-amide] | 63% | 86% | 750 nM |
| CC(C)C[C@H](NC(=O)N1CCCCCC1)C(=O)N[C@@H](Cc1ccc(OCc2ccccc2)cc1)C(=O)c1cc[nH]n1 (relative stereo) [Example 261, [S-(R*,R*)]-Azepane-1-carboxylic acid {1-[2-(4-benzyloxy-phenyl)-1-(pyrazole-3-carbonyl)-ethylcarbamoyl]-3-methyl-butyl}-amide] | – | – | 2000 nM |

The remaining lines, values ahead:

| Inhibition of Calcium Flux in IMR-32 Cells % Inhibition at 1 μM | Inhibition of Calcium Flux in IMR-32 Cells % Inhibition at 10 μM | IC50 | Compound |
| --- | --- | --- | --- |
| 16% | 37% | – | CC(=O)Nc1ccc(NC(=O)[C@H](Cc2ccc(OCc3ccccc3)cc2)NC(=O)[C@H](CC(C)C)NC(=O)N2CCCCCC2)cc1 (relative stereo) [Example 216, [S-(R*,R*)]-Azepane-1-carboxylic acid {1-[1-(4-acetylamino-phenylcarbamoyl)-2-(4-benzyloxy-phenyl)-ethylcarbamoyl]-3-methyl-butyl}-amide] |
| 40% | 88% | – | CC(C)C[C@H](NC(=O)N1CCCCCC1)C(=O)N[C@@H](Cc1ccc(OCc2ccccc2)cc1)C(=O)NCc1ccco1 (relative stereo) [Example 220, [S-(R*,R*)]-Azepane-1-carboxylic acid (1-{2-(4-benzyloxy-phenyl)-1-[(furan-2-ylmethyl)-carbamoyl]-ethylcarbamoyl}-3-methyl-butyl)-amide] |
| 55% | 94% | – | CC(C)C[C@H](NC(=O)N1CCCCCC1)C(=O)N[C@@H](Cc1ccc(OCc2ccccc2)cc1)C(=O)NCCc1ccc(O)cc1 (relative stereo) [Example 225, [S-(R*,R*)]-Azepane-1-carboxylic acid (1-{2-(4-benzyloxy-phenyl)-1-[2-(4-hydroxy-phenyl)-ethylcarbamoyl]-ethylcarbamoyl}-3-methyl-butyl)-amide] |
| 53% | 83% | – | CC(C)C[C@H](NC(=O)N1CCCCCC1)C(=O)N[C@@H](Cc1ccc(OCc2ccccc2)cc1)C(=O)NCc1cccc(I)c1 (relative stereo) [Example 241, [S-(R*,R*)]-Azepane-1-carboxylic acid {1-[2-(4-benzyloxy-phenyl)-1-(3-iodo-benzylcarbamoyl)-ethylcarbamoyl]-3-methyl-butyl}-amide] |
| – | 33% | – | CC(C)C[C@H](NC(=O)N1CCCCCC1)C(=O)N[C@@H](Cc1ccc(OCc2ccccc2)cc1)C(=O)Nc1ccc(N2CCCCC2)cc1 (relative stereo) [Example 260, [S-(R*,R*)]-Azepane-1-carboxylic acid {1-[2-(4-benzyloxy-phenyl)-1-(4-piperidin-1-yl-phenylcarbamoyl)-ethylcarbamoyl]-3-methyl-butyl}-amide] |
